{"source": "patent US4555525A", "about": "“Use of desethyl-N-acetylprocainamide (NAPADE) as an inotropic agent” (Administrators of the Tulane Educational Fund, priority 1984, dated 1985)", "key": {"cardiac muscle [1]": {"tested_on": "cardiac muscle", "experiment": "Cardiovascular effects of procainamide and NAPA, for comparison with NAPADE", "format": "in vivo", "conditions": "procainamide or NAPA; for effect on force of contraction of the heart muscle (inotropic effect): procainamide at 60 mg/kg i.v. as a 15 minute infusion, 60 mg/kg"}, "[2]": {"conditions": "cited from earlier work"}, "cardiac muscle [3]": {"tested_on": "cardiac muscle", "experiment": "NAPA effect after pretreatment with propranolol", "format": "in vivo"}, "[4]": {"experiment": "NAPADE pharmacokinetics in chloralose-urethane anesthetized dogs (HPLC plasma levels, two-compartment model)", "format": "in vivo, dog (male mongrel)", "experimental": "Blood samples were obtained over a period of 5-120 minutes to measure NAPADE plasma concentration by high-performance liquid chromatography (HPLC) and to construct a plasma concentration versus time curve of FIG. 1.\nThe pharmacokinetics of NAPADE were analyzed with a two-compartment model with elimination from the central compartment. The method of residuals was used to resolve the exponential components of each plasma concentration versus time curve and to obtain estimates of alpha and beta (first-order rate constants) and A and B intercepts corrected to 0-time using the method of Loo and Reigelman. These parameters were then used to estimate apparent volume of distribution (V central, V peripheral, V total) and clearance values (Cl intercompartmental, Cl elimination) for each dog according to standard pharmacokinetic methodology."}, "cardiac muscle [5]": {"tested_on": "cardiac muscle", "experiment": "Cardiovascular effects in chloralose-urethane anesthetized dogs (myocardial force, heart rate, mean arterial pressure)", "format": "in vivo, dog (male mongrel)", "text": "We have investigated the cardiovascular effects of NAPADE in animal models and have observed the following unique properties of NAPADE: […]\n(§1) Myocardial force, mean arterial pressure and heart rate are expressed as the percent change from baseline for each experimental group. Statistical analysis was done with analysis of variance for repeated measurements and Duncan's multiple range test. All values are mean ± SEM."}, "[6]": {"conditions": "mice; cited from earlier work"}, "β-adrenergic receptor": {"tested_on": "β-adrenergic receptor", "experiment": "Cardiovascular effects of NAPADE after pretreatment with propranolol in anesthetized dogs", "format": "in vivo, dog (male mongrel)", "text": "as §1"}, "[7]": {"conditions": "NAPADE-HCl 60 mg/kg, 15-minute IV infusion"}, "[8]": {"conditions": "individual dogs No. 1-8, one line per dog, NAPADE-HCl 60 mg/kg, 15-minute IV infusion, 60 mg/kg"}, "[9]": {"conditions": "NAPADE-HCl 60 mg/kg IV after propranolol 0.5 mg/kg followed by 10 μg/kg/min"}}, "note": "Several values for one entry are separate records, joined by “and”; a condition that tells them apart may be missing. Equal values may be shown once. Entries after “also recorded” stand apart in the source; their conditions may differ. Read-outs that look alike come from different tables or passages of the source.", "data": [{"smiles": "CCN(CC)CCNC(=O)c1ccc(NC(C)=O)cc1", "note": "[NAPA, N-acetylprocainamide]", "values": [{"measurement": "effect on blood pressure (hypotensive effect)", "setting": "cardiac muscle [1]", "result": "exhibiting hypotensive effects"}, {"measurement": "effect on heart rate", "setting": "cardiac muscle [1]", "result": "decreasing the heart rate"}, {"measurement": "effect on force of contraction of the heart muscle (inotropic effect)", "setting": "cardiac muscle [1]", "result": "increases the force of contraction of heart muscle; also recorded: positive inotropic effects"}, {"measurement": "elimination half-life", "setting": "[2]; NAPA in the dog, approximate", "result": "approximately six"}, {"measurement": "elimination clearance", "setting": "[2]; NAPA in the dog", "result": "2.64 ± 0.9", "unit": "mL/min/kg"}, {"measurement": "apparent volume of distribution (Vtotal)", "setting": "[2]; NAPA, previous studies", "result": "1.48 ± 0.16", "unit": "L/kg"}, {"measurement": "inotropic action after propranolol pretreatment", "setting": "cardiac muscle [3]", "result": "negative inotropic action is apparent"}]}, {"smiles": "CCNCCNC(=O)c1ccc(NC(C)=O)cc1", "note": "[NAPADE, Desethyl-N-acetylprocainamide]", "values": [{"measurement": "decline of plasma concentrations / kinetics of elimination", "setting": "[4]; [7]", "result": "declined in a bi-exponential fashion; also recorded: bi-exponential kinetics of elimination"}, {"measurement": "apparent volume of distribution, NAPADE as a fraction of NAPA value", "setting": "[4]; compared with NAPA from previous studies", "result": "approximately one-third"}, {"measurement": "half-life", "setting": "[4]; dog, plasma, iv, 60 mg/kg, individual dogs No. 1-8, one line per dog, NAPADE-HCl 60 mg/kg, 15-minute IV infusion, read-out: T1/2(BETA) (elimination half-life)", "result": 55, "unit": "min"}, {"measurement": "half-life", "setting": "[4]; dog, plasma, iv, 60 mg/kg, mean of 8 dogs (± SEM in text), NAPADE-HCl 60 mg/kg, 15-minute IV infusion, read-out: T1/2 beta (terminal / elimination half-life)", "result": "54.5 ± 2.9", "unit": "min"}, {"measurement": "clearance", "setting": "[4]; dog, plasma, iv, 60 mg/kg, mean of 8 dogs, NAPADE-HCl 60 mg/kg, 15-minute IV infusion, read-out: ClELIMINATION (elimination clearance)", "result": 8.56, "unit": "mL/min/kg"}, {"measurement": "Vd", "setting": "[4]; dog, plasma, iv, 60 mg/kg, mean of 8 dogs, NAPADE-HCl 60 mg/kg, 15-minute IV infusion, read-out: VCENTRAL (volume of the central compartment)", "result": 0.153, "unit": "L/kg"}, {"measurement": "Vd", "setting": "[4]; dog, plasma, iv, 60 mg/kg, mean of 8 dogs, NAPADE-HCl 60 mg/kg, 15-minute IV infusion, read-out: VTOTAL (total apparent volume of distribution)", "result": 0.513, "unit": "L/kg"}, {"measurement": "Cmax at 0.25 h", "setting": "[4]; dog, plasma, NAPADE-HCl 60 mg/kg, 15-minute IV infusion, at 15 minutes, mean ± SEM, read-out: peak NAPADE concentrations (plasma)", "result": "165 ± 18.1", "unit": "µg/mL"}, {"measurement": "Tmax", "setting": "[4]; dog, plasma, NAPADE-HCl 60 mg/kg, 15-minute IV infusion, read-out: time of peak plasma concentrations (converted)", "result": 15, "unit": "min"}, {"measurement": "ClINTERC. (intercompartmental clearance)", "setting": "[4]; individual dogs No. 1-8, one line per dog, NAPADE-HCl 60 mg/kg, 15-minute IV infusion", "result": "0.00746 L/min/kg and 0.00999 L/min/kg and 0.02467 L/min/kg and 0.00991 L/min/kg and 0.02412 L/min/kg and 0.02245 L/min/kg and 0.00931 L/min/kg and 0.01577 L/min/kg"}, {"measurement": "ClELIMINATION (elimination clearance)", "setting": "[4]; [8]", "result": "8.17 mL/min/kg and 4.99 mL/min/kg and 12.61 mL/min/kg and 7.34 mL/min/kg and 13.11 mL/min/kg and 11.54 mL/min/kg and 5.75 mL/min/kg and 5 mL/min/kg"}, {"measurement": "T1/2(BETA) (elimination half-life)", "setting": "[4]; [8]", "result": "60 min and 67 min and 57 min and 56 min and 40 min and 47 min and 54 min"}, {"measurement": "VTOTAL (total apparent volume of distribution)", "setting": "[4]; [8]", "result": "0.447 L/kg and 0.342 L/kg and 0.893 L/kg and 0.476 L/kg and 0.806 L/kg and 0.499 L/kg and 0.293 L/kg and 0.346 L/kg"}, {"measurement": "ClINTERC. (intercompartmental clearance)", "setting": "[4]; mean of 8 dogs, NAPADE-HCl 60 mg/kg, 15-minute IV infusion", "result": 0.01546, "unit": "L/min/kg"}, {"measurement": "ClELIMINATION (elimination clearance)", "setting": "[4]; mean of 8 dogs, NAPADE-HCl 60 mg/kg, 15-minute IV infusion, 60 mg/kg", "result": "8.56 ± 1.2", "unit": "mL/min/kg"}, {"measurement": "duration of inotropic and chronotropic actions", "setting": "cardiac muscle [5]; NAPADE-HCl 60 mg/kg IV", "result": "50 to 90", "unit": "min"}, {"measurement": "duration of significantly increased myocardial force", "setting": "cardiac muscle [5]; NAPADE-HCl 60 mg/kg IV, compared to the control group", "result": 90, "unit": "min"}, {"measurement": "duration of significantly increased heart rate", "setting": "cardiac muscle [5]; NAPADE-HCl 60 mg/kg IV, over control", "result": 50, "unit": "min"}, {"measurement": "time of peak effects (inotropic and chronotropic)", "setting": "cardiac muscle [5]; [7]", "result": 15, "unit": "min"}, {"measurement": "maximum increase in heart rate over baseline", "setting": "cardiac muscle [5]; NAPADE-HCl 60 mg/kg, 15-minute IV infusion, mean ± SEM", "result": "22.2±4.4", "unit": "percent over baseline"}, {"measurement": "maximum increase in myocardial force over baseline", "setting": "cardiac muscle [5]; NAPADE-HCl 60 mg/kg, 15-minute IV infusion, right ventricular, mean ± SEM", "result": "48.9±10", "unit": "percent over baseline"}, {"measurement": "effect on blood pressure (hypotensive effect)", "setting": "cardiac muscle [5]; NAPADE, result in words", "result": "lacks significant hypotensive effects; also recorded: small and statistically insignificant changes in blood pressure; also recorded: without significant changes in systemic arterial pressure"}, {"measurement": "effect on heart rate (chronotropic effect)", "setting": "cardiac muscle [5]; NAPADE, result in words", "result": "positive chronotropic effect; also recorded: significant increases in myocardial force and heart rate; also recorded: significant positive inotropic and chronotropic actions"}, {"measurement": "effect on myocardial force of contraction (inotropic effect)", "setting": "cardiac muscle [5]; NAPADE, result in words", "result": "positive inotropic effects; also recorded: very significant increase in myocardial force of contraction; also recorded: significant increases in myocardial force; also recorded: significant positive inotropic and chronotropic actions"}, {"measurement": "antifibrillatory activity", "setting": "[6]", "result": "antifibrillatory activity"}, {"measurement": "negative inotropic (myocardial depressant) effect after propranolol pretreatment", "setting": "β-adrenergic receptor; NAPADE in the presence of β-adrenergic receptor blockade with propranolol", "result": "lacks negative inotropic effects; also recorded: No such effect was seen"}, {"measurement": "blood pressure effect after propranolol pretreatment", "setting": "β-adrenergic receptor; [9]", "result": "only a mild decrease in blood pressure; also recorded: seemed to potentiate the mild hypotensive actions; also recorded: potentiated the mild hypotensive actions"}, {"measurement": "chronotropic action after propranolol pretreatment", "setting": "β-adrenergic receptor; [9]", "result": "abolishes the positive inotropic and chronotropic actions; also recorded: effectively blocked the positive inotropic and chronotropic actions"}, {"measurement": "inotropic action after propranolol pretreatment", "setting": "β-adrenergic receptor; [9]", "result": "abolishes the positive inotropic and chronotropic actions; also recorded: effectively blocked the positive inotropic and chronotropic actions"}]}, {"smiles": "CCN(CC)CCNC(=O)c1ccc(N)cc1", "note": "[procainamide, Procainamide]", "values": [{"measurement": "effect on blood pressure (hypotensive effect)", "setting": "cardiac muscle [1]", "result": "exhibits hypotensive effects"}, {"measurement": "effect on heart rate", "setting": "cardiac muscle [1]", "result": "decreases the heart rate"}, {"measurement": "effect on force of contraction of the heart muscle (inotropic effect)", "setting": "cardiac muscle [1]", "result": "decreases the force of contraction of the heart muscle; also recorded: negative inotropic effect"}]}]}
